ChEMBL document CHEMBL6071200, “Discovery of Ring-Annulated Analogues of Cannabidiol as Potential Anticancer Agents: Synthesis and Biological Evaluation” (ACS Med Chem Lett, 2024)
pIC50: −log10 of the molar value. Active and inactive are the calls of the source. No cut-off for these calls is given here.

Legend:
[1] = test system: MCF7; assay: Cell cycle arrest in human MCF7 cells assessed as accumulation of cells at G1 phase at 14.65 uM incubated for 24 hrs by PI staining based flow cytometric analysis (reference value: 63.9 %); type: functional
[2] = test system: MCF7; assay: Anticancer activity against human MCF7 cells assessed as reduction in cell viability at 14.65 uM preincubated with GW9662 for 1 hrs followed by compound addition and measured after 48 hrs by SRB assay; type: functional, cell-based
[3] = test system: DU-145; assay: Anticancer activity against human DU-145 cells; type: functional, cell-based
[4] = test system: RBL-2H3; assay: Anticancer activity against rat RBL-2H3 cells; type: functional, cell-based
[5] = test system: MCF7; assay: Anticancer activity against human MCF7 cells assessed as reduction in cell viability at 14.65 uM preincubated with capsazepine for 1 hrs followed by compound addition and measured after 48 hrs by SRB assay; type: functional, cell-based
[6] = test system: MCF7; assay: Cell cycle arrest in human MCF7 cells assessed as accumulation of cells at S phase at 14.65 uM incubated for 24 hrs by PI staining based flow cytometric analysis (reference value: 22.93 %); type: functional
[7] = test system: MCF7; assay: Anticancer activity against human MCF7 cells; type: functional, cell-based
[8] = test system: MCF7; assay: Anticancer activity against human MCF7 cells assessed as reduction in cell viability at 14.65 uM preincubated with LY320135 for 1 hrs followed by compound addition and measured after 48 hrs by SRB assay; type: functional, cell-based
[9] = Anticancer activity against human MZC cells; type: functional, cell-based
[10] = Anticancer activity against KiMol cells (unknown origin); type: functional, cell-based; settings: KiMol cell
[11] = test system: MCF7; assay: Anticancer activity against human MCF7 cells assessed as reduction in cell viability at 14.65 uM preincubated with SR144528 for 1 hrs followed by compound addition and measured after 48 hrs by SRB assay; type: functional, cell-based
[12] = test system: A549; assay: Anticancer activity against human A549 cells; type: functional, cell-based
[13] = Metabolic stability in human liver microsomes assessed as parent compound remaining measured after 30 mins; type: ADME, Microsome; settings: read-out: Stability
[14] = test system: MCF7; assay: Cytotoxicity against human MCF7 cells assessed as inhibition of cell growth incubated for 48 hrs by SRB assay; type: functional, cell-based; settings: MCF7, 48 h
[15] = test system: HCT-116; assay: Cytotoxicity against human HCT-116 cells assessed as inhibition of cell growth at 20 uM incubated for 48 hrs by SRB assay relative to control; type: functional
[16] = Anticancer activity against mouse GL261 cells; type: functional, cell-based
[17] = test system: NCI-H460; assay: Anticancer activity against human NCI-H460 cells; type: functional, cell-based
[18] = test system: LNCaP; assay: Anticancer activity against human LNCaP cells; type: functional, cell-based
[19] = test system: SW480; assay: Anticancer activity against human SW480 cells; type: functional, cell-based
[20] = test system: MCF7; assay: Induction of apoptosis in human MCF7 cells assessed as necrotic cells at 14.65 uM incubated for 24 hrs by Annexin V-FITC/PI staining based flow cytometric analysis (reference value: 4.02 %); type: functional
[21] = test system: CCRF-CEM; assay: Anticancer activity against human CEM cells; type: functional, cell-based
[22] = test system: MCF7; assay: Induction of ROS production in human MCF7 cells assessed as DCFDA intensity at 14.6 uM incubated for 24 hrs by flow cytometric analysis (reference value: 0.95 %); type: functional
[23] = test system: MCF7; assay: Induction of apoptosis in human MCF7 cells assessed as early apoptotic cells at 14.65 uM incubated for 24 hrs by Annexin V-FITC/PI staining based flow cytometric analysis (reference value: 2.93 %); type: functional
[24] = Selectivity index, ratio of IC50 for HEK293 cells to IC50 for human HCT-116 cells; type: toxicity; settings: HEK293 cells versus HCT-116 cells, read-out: Ratio IC50
[25] = test system: T47D; assay: Anticancer activity against human T47D cells; type: functional, cell-based
[26] = test system: HCT-116; assay: Cytotoxicity against human HCT-116 cells assessed as inhibition of cell growth incubated for 48 hrs by SRB assay; type: functional, cell-based; settings: HCT-116, 48 h
[27] = test system: MCF7; assay: Inhibition of colony formation in human MCF7 cells assessed as reduction in number of colonies at subtoxic doses measured after 48 hrs by crystal violet staining based analysis; type: functional, cell-based
[28] = target: CYP450 (Homo sapiens, UniProt P04798+P05177+P05181+P08684+P10632+P10635+P11509+P11712+P13584+P20813+P20815+P20853+P24462+P24903+P33260+P33261+P51589+P78329+P98187+Q02928+Q08477+Q16678+Q16696+Q5TCH4+Q6VVX0+Q7Z449+Q8TAV3+Q96SQ9+Q9HB55); assay: Inhibition of CYP450 in human liver microsomes at <1 uM by cocktail-mixture based assay relative to control; type: ADME, Microsome; set-up: dose or concentration left out as unconfirmed; settings: probe cocktail mixture
[29] = test system: MCF7; assay: Anticancer activity against human MCF7 cells assessed as reduction in cell viability at 14.65 uM incubated for 48 hrs by SRB assay relative to control; type: functional
[30] = test system: MCF7; assay: Induction of apoptosis in human MCF7 cells assessed as late apoptotic cells at 14.65 uM incubated for 24 hrs by Annexin V-FITC/PI staining based flow cytometric analysis (reference value: 4.85 %); type: functional
[31] = test system: MDA-MB-231; assay: Anticancer activity against human MDA-MB-231 cells; type: functional, cell-based
[32] = test system: SF-126; assay: Anticancer activity against human SF-126 cells; type: functional, cell-based
[33] = test system: MCF7; assay: Cell cycle arrest in human MCF7 cells assessed as accumulation of cells at G2/M phase at 14.65 uM incubated for 24 hrs by PI staining based flow cytometric analysis (reference value: 13.7 %); type: functional
[34] = test system: MCF7; assay: Cytotoxicity against human MCF7 cells assessed as inhibition of cell growth at 20 uM incubated for 48 hrs by SRB assay relative to control; type: functional
[35] = test system: AGS; assay: Anticancer activity against human AGS cells; type: functional, cell-based
[36] = Selectivity index, ratio of IC50 for HEK293 cells to IC50 for human MCF7 cells; type: toxicity; settings: HEK293 cells versus MCF7 cells, read-out: Ratio IC50
[37] = test system: HL-60; assay: Anticancer activity against human HL-60 cells; type: functional, cell-based
[38] = test system: MCF7; assay: Induction of apoptosis in human MCF7 cells assessed as viable cells at 14.65 uM incubated for 24 hrs by Annexin V-FITC/PI staining based flow cytometric analysis (reference value: 88.20 %); type: functional; settings: read-out: Activity
[39] = test system: EL4; assay: Anticancer activity against mouse EL4 cells; type: functional, cell-based
[40] = test system: MCF7; assay: Anticancer activity against human MCF7 cells assessed as reduction in cell viability at 14.65 uM preincubated with ML-193 for 1 hrs followed by compound addition and measured after 48 hrs by SRB assay; type: functional, cell-based
[41] = Anticancer activity against mouse Thymocyte; type: toxicity, cell-based; settings: thymocytes
[42] = Cytotoxicity against human HEK293 cells assessed as inhibition of cell growth incubated for 48 hrs by SRB assay; type: toxicity, cell-based
[43] = test system: MCF7; assay: Induction of mitochondrial membrane loss in human MCF7 cells assessed as fold change at 14.6 uM incubated for 24 hrs by Mitotracker dye based flow cytometric analysis relative to control; type: functional
[44] = test system: C6; assay: Anticancer activity against rat C6 cells; type: functional, cell-based
[45] = test system: Caco-2; assay: Anticancer activity against human Caco-2 cells; type: functional, cell-based
[46] = test system: T98; assay: Anticancer activity against human T98 cells; type: functional, cell-based

C=C(C)[C@@H]1CCC(C)=C[C@H]1c1c(O)cc(CCCCC)cc1O [CANNABIDIOL]
Activity [1]: 75.12%
Activity [2]: Active
pIC50 [3]: 5.30
pIC50 [4]: 5.20
Activity [5]: Active
Activity [6]: 6.84%
pIC50 [7]: 5.89
Activity [8]: Active
pIC50 [9]: 5.92
pIC50 [10]: 5.22
Activity [11]: Active
pIC50 [12]: 5.55
remaining at 0.5 h [13]: 17%
pIC50 [14]: 4.84
inhibition at 20 µM [15]: 77.3%
pIC50 [16]: 5.92
pIC50 [17]: 5.55
pIC50 [18]: 5.30
pIC50 [19]: 5.23
Activity [20]: 2.38%
pIC50 [21]: 5.20
Activity [22]: 15.11%
Activity [23]: 6.33%
selectivity ratio [24]: 9.7
pIC50 [25]: 5.89
pIC50 [26]: 5.01
inhibition [27]: Active
inhibition [28]: > 50%
Activity [29]: 52.46%
Activity [30]: 10.14%
pIC50 [31]: 5.89
pIC50 [32]: 5.92
Activity [33]: 18.04%
inhibition at 20 µM [34]: 59.1%
pIC50 [35]: 5.12
selectivity ratio [36]: 6.5
pIC50 [37]: 5.20
viability at 14.65 µM [38]: 81.1%
pIC50 [39]: 5.15
Activity [40]: Active
pIC50 [41]: 5.15
IC50 at 48 h [42]: 95.2 µM
fold change (FC) [43]: 3.4
pIC50 [44]: 5.92
pIC50 [45]: 5.23
pIC50 [46]: 5.92
